Test results from US10227357B2, “Compounds and methods for kinase modulation, and indications therefor” (Plexxikon Inc., priority 2012, dated 2019).

Legend:
[1] = target: T1, c-kit kinase (Homo sapiens, UniProt P10721); assay: c-Kit biochemical assay, AlphaScreen, 10 μM ATP; details: c-kit biochemical inhibitory activity; read-out: Biochemical activity (IC50 μM) Kit
T1 construct: The c-kit (or kinase domain thereof) is an active kinase in AlphaScreen; poly-Histidine tag (in-house protein only) (cleaved yes); host or cells: E. coli BL21(DE3)RIL, co-expressed with PTP1B
T1 sequence (P10721 26-976): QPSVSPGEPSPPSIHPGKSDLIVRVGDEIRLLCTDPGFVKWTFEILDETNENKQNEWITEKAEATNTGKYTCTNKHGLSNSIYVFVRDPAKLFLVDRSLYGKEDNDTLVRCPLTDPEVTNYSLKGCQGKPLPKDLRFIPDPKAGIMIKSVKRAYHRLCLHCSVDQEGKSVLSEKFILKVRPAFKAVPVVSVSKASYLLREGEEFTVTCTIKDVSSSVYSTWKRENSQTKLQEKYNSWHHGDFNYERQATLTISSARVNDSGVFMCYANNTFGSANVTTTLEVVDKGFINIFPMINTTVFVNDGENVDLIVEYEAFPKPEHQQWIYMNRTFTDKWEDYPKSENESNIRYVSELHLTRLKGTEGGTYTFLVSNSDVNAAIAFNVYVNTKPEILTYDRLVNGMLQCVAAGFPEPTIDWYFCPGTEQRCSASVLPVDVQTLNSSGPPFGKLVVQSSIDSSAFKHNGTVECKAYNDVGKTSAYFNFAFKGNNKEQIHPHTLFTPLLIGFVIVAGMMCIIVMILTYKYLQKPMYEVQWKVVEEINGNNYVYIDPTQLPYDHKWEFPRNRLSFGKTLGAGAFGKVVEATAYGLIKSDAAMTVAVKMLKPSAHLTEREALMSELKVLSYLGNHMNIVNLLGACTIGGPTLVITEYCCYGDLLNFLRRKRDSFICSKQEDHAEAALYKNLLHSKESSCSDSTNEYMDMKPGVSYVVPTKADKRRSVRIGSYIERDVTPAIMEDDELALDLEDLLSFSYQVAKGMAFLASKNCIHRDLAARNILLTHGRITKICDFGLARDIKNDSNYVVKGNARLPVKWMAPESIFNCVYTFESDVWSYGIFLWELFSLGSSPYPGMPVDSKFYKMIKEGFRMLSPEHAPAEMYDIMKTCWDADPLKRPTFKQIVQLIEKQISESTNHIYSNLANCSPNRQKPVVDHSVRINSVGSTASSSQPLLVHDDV
Procedure, shortened: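 His-tagged c-Kit expressed in E. coli with co-expressed PTP1B (dephosphorylated), tag removed; 0.1 ng per reaction with biotinylated-peptide substrate in 50 mM HEPES pH 7.2, 5 mM MgCl2, 5 mM MnCl2, 5% DMSO, 10 μM ATP, 1 h at room temperature. Phosphorylation detected by AlphaScreen (streptavidin donor, PY20 acceptor beads); IC50 from 8-point 1:3 dilution series.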

[2] = target: T2, c-kit mutant D816V (Homo sapiens, UniProt P10721, D816V/DEL694-753); assay: c-Kit mutant D816V biochemical assay, AlphaScreen; details: c-kit D816V biochemical inhibitory activity; read-out: Biochemical activity (IC50 μM) Kit D816V
T2 construct: residues 551-934, kinase insertion domain residues 694-753 deleted; 6x-histidine (N); made in house; host or cells: E. coli Arctic Express (DE3) RIL (Stratagene)
T2 sequence (P10721 with tags, fused parts or gaps DEL694-753/D816V): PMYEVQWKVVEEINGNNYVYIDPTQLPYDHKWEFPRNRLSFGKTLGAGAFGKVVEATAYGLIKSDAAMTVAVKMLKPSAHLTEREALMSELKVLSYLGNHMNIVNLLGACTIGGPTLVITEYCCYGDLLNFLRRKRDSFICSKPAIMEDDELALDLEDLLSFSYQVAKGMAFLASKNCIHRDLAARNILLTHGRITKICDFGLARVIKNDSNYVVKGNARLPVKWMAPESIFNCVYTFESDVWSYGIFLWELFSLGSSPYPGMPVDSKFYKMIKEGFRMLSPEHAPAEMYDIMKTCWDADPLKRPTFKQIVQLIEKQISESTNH
Procedure, shortened: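 Purified His-tagged c-Kit D816V (E. coli-expressed) assayed in 25 mM HEPES pH 7.2 with Mg/Mn, 5% DMSO and 10 μM ATP, 30 min at room temperature, 8-point 1:3 dilutions. Phosphorylation detected by AlphaScreen with streptavidin donor and PY20 acceptor beads; IC50 from signal versus concentration.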

| Structure (SMILES) | IC50 [1] [µM] | IC50 [2] [µM] |
| --- | --- | --- |
| Cc1nn(C)cc1-c1cc2c(N3CCN(C(=O)N[C@@H](C)c4ccc(F)cc4)C(C)(C)C3)ncnc2[nH]1 [P-0721, 4-[6-(1,3-dimethylpyrazol-4-yl)-7H-pyrrolo[2,3-d]pyrimidin-4-yl]-N-[(1S)-1-(4-fluorophenyl)ethyl]-2,2-dimethyl-piperazine-1-carboxamide] | 0.0001 to 1 | 0.0001 to 1 |
| Cc1cc2c(-c3ccc(NS(=O)(=O)c4cccc(F)c4)c(F)c3)ncnc2[nH]1 [P-0347, 3-fluoro-N-[2-fluoro-4-(6-methyl-7H-pyrrolo[2,3-d]pyrimidin-4-yl)phenyl]benzenesulfonamide] | 1 to 10 | 1 to 10 |
| COc1ccc([C@H](C)NC(=O)N2CCN(c3ncnc4cc(-c5ccc(F)cc5)sc34)CC2(C)C)cc1 [P-0576, 4-[6-(4-fluorophenyl)thieno[3,2-d]pyrimidin-4-yl]-N-[(1S)-1-(4-methoxyphenyl)ethyl]-2,2-dimethyl-piperazine-1-carboxamide] | 10 to 200 | 0.0001 to 1 |
| O=C(NCc1ccc(F)cc1)N1CCN(c2ncnc3[nH]c(-c4ccccc4)cc23)CC1 [P-0242, N-[(4-fluorophenyl)methyl]-4-(6-phenyl-7H-pyrrolo[2,3-d]pyrimidin-4-yl)piperazine-1-carboxamide] | 0.0001 to 1 | 1 to 10 |
| C[C@H](NC(=O)N1CCN(c2ncnc3cc(-c4ccc(F)cc4)sc23)CC1(C)C)c1cccc(Cl)c1 [P-0580, N-[(1S)-1-(3-chlorophenyl)ethyl]-4-[6-(4-fluorophenyl)thieno[3,2-d]pyrimidin-4-yl]-2,2-dimethyl-piperazine-1-carboxamide] | 10 to 200 | 0.0001 to 1 |
| O=C(C1CC1)N1CC=C(c2cc3ncnc(-c4ccc(NS(=O)(=O)c5ccc(F)cc5)cc4)c3s2)CC1 [P-0570, N-[4-[6-[1-(cyclopropanecarbonyl)-3,6-dihydro-2H-pyridin-4-yl]thieno[3,2-d]pyrimidin-4-yl]phenyl]-4-fluoro-benzenesulfonamide] | 0.0001 to 1 | 0.0001 to 1 |
| Cc1nn(C)cc1-c1cc2ncnc(N3CCN(C(=O)N[C@@H](C)c4cccc(Cl)c4)[C@H](C)C3)c2s1 [P-0591, (2R)-N-[(1S)-1-(3-chlorophenyl)ethyl]-4-[6-(1,3-dimethylpyrazol-4-yl)thieno[3,2-d]pyrimidin-4-yl]-2-methyl-piperazine-1-carboxamide] | 10 to 200 | 0.0001 to 1 |
| COc1cccc([C@H](C)NC(=O)N2CCN(c3ncnc4[nH]c(-c5ccnc(OC)c5)cc34)CC2(C)C)c1 [P-0009, N-[(1S)-1-(3-methoxyphenyl)ethyl]-4-[6-(2-methoxy-4-pyridyl)-7H-pyrrolo[2,3-d]pyrimidin-4-yl]-2,2-dimethyl-piperazine-1-carboxamide] | 1 to 10 | 0.0001 to 1 |
| Cc1cc2c(-c3ccc(NS(=O)(=O)c4ccc(Cl)cc4)c(F)c3)ncnc2[nH]1 [P-0344, 4-chloro-N-[2-fluoro-4-(6-methyl-7H-pyrrolo[2,3-d]pyrimidin-4-yl)phenyl]benzenesulfonamide] | 1 to 10 | 1 to 10 |
| C[C@@H]1CN(c2ncnc3cc(-c4ccc(F)cc4)sc23)CCN1C(=O)NCc1ccc(F)cc1 [P-0602, (2R)-N-[(4-fluorophenyl)methyl]-4-[6-(4-fluorophenyl)thieno[3,2-d]pyrimidin-4-yl]-2-methyl-piperazine-1-carboxamide] | 10 to 200 | 0.0001 to 1 |
| CCc1ccc(S(=O)(=O)NC2CCN(c3ncnc4[nH]c(-c5cnn(C)c5)cc34)CC2)s1 [P-0665, 5-ethyl-N-[1-[6-(1-methylpyrazol-4-yl)-7H-pyrrolo[2,3-d]pyrimidin-4-yl]-4-piperidyl]thiophene-2-sulfonamide] | 0.0001 to 1 | 0.0001 to 1 |
| Cc1ccc(S(=O)(=O)Nc2ccc(-c3ncnc4[nH]c(C)nc34)cc2)cc1 [P-0450, 4-methyl-N-[4-(8-methyl-9H-purin-6-yl)phenyl]benzenesulfonamide] | 10 to 200 | 1 to 10 |
